Source: patent US8895273B2, “Conversion of hexuronic acid to hexaric acid” (Teknologian Tutkimuskeskus VTT, priority 2008, dated 2014)

How the values were obtained:
[1] = molecular target: T1, D-galacturonic acid dehydrogenase (uronate dehydrogenase, EC 1.1.1.203, uro1) (Agrobacterium fabrum, UniProt Q7CRQ0); assay: Michaelis-Menten characterization of the purified histidine-tagged D-galacturonic acid dehydrogenase (uro1); assay type: biochemical, Agrobacterium tumefaciens; conditions: for enzyme activity with the substrate: purified histidine-tagged protein
T1 construct: histidine-tag (His6); made in house; host or cells: Saccharomyces cerevisiae CEN.PK; purified on Ni-NTA-agarose
Description: (§1) The S. cerevisiae strain resulting from the Example 1 was then disintegrated by vortexing with glass beads and the yeast extract analysed for D-galacturonic acid dehydrogenase activity. In a control experiment a similar strain but with an empty plasmid was used. To assay the D-galacturonic acid dehydrogenase activity the crude cell extract was mixed with 0.5 mM NAD and 4 mM D-galacturonic acid in a 50 mM Tris pH 7.5 buffer containing 0.5 mM MgCl2. The activity was 0.12 units per mg of extracted protein. One unit is the activity that forms 1 μmol of product per minute. In the control strain no activity could be detected.
(§2) The D-galacturonic acid dehydrogenase with a histidine-tag at the N-terminal end was produced in a similar manner as in the Example 1, except that the histidine-tag was introduced by PCR. To introduce the histidine tag the following primers were used 5′-[…]-3′ (SEQ ID NO:5) in sense direction and 5′-[…]-3′ (SEQ ID NO:6) in anti-sense.
(§3) After the expression of the histidine-tagged protein in S. cerevisiae as described in the Example 1 the activity was measured as described in the Example 2. […] The histidine-tagged D-galacturonic acid dehydrogenase was then purified using a Ni-NTA-agarose (Qiagen) according to the instructions of the manufacturer. The purified enzyme gave a single band in an SDS PAGE.
(§4) The purified protein was then used to estimate the Michaelis-Menten constants.

[2] = molecular target: T2, uronate dehydrogenase from Pseudomonas (GenBank EU377538) (Pseudomonas syringae pv. tomato, UniProt Q888H1); assay: Enzyme activity of uronate dehydrogenase from Pseudomonas expressed in S. cerevisiae; assay type: biochemical, Pseudomonas syringae pv. tomato str. DC3000; conditions: yeast extract, with NAD, tested as in Example 2
T2 construct: The open reading frame was released by digestion with NcoI and SpeI; made in house; host or cells: Saccharomyces cerevisiae CEN.PK (crude cell extract)
Description: as §1
The DNA coding for uronate dehydrogenase was custom-synthesised by GENEART. The codes for the same amino acid as the gene with the GenBank accession number EU377538. The DNA sequence is in the Sequence Listing SEQ ID NO: 19. It codes for the amino acid sequence SEQ ID NO:20.
The open reading frame was released by digestion with NcoI and SpeI. The resulting fragment was then ligated to the NcoI and NheI sites of the pYX212 (R&D Systems) which is a multicopy yeast expression vector with PGK1 promoter and URA3 selection marker. The resulting vector was then transfected to the S. cerevisiae strain CEN.PK as in the Example 1. The enzyme activity was then tested as in Example 2.

[3] = system: O=C[C@H](O)[C@@H](O)[C@@H](O)[C@H](O)C(=O)O; assay: Michaelis-Menten characterization of the purified histidine-tagged D-galacturonic acid dehydrogenase (uro1); assay type: biochemical, Agrobacterium tumefaciens; conditions: other: purified histidine-tagged enzyme; Michaelis-Menten constant of the substrate/cofactor; pH 7.5
Description: as §1, §2, §3, §4

[4] = system: O=C[C@H](O)[C@@H](O)[C@H](O)[C@H](O)C(=O)O; assay: as above; assay type: biochemical, Agrobacterium tumefaciens; conditions: other: purified histidine-tagged enzyme; Michaelis-Menten constant of the substrate/cofactor; pH 7.5
Description: as §1, §2, §3, §4

T1 sequence (Q7CRQ0 whole entry, added parts left off): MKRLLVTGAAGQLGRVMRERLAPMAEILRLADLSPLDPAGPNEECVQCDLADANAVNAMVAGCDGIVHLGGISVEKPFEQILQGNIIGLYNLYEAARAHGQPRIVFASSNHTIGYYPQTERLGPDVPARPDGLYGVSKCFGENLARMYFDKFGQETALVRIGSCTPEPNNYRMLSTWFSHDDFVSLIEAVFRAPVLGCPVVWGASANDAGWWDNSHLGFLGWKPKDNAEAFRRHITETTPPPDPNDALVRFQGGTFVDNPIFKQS
T2 sequence (Q888H1 whole entry): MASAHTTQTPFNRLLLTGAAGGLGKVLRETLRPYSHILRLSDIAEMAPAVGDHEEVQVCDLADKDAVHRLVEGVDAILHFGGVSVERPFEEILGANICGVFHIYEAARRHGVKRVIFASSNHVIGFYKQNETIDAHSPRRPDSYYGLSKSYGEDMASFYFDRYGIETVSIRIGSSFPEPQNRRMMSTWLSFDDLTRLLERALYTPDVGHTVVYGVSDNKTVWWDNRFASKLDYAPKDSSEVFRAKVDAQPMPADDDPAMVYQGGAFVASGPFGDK

**Q.** With `O=C[C@H](O)[C@@H](O)[C@@H](O)[C@H](O)C(=O)O` [D-galacturonic acid] as the compound, how does the “enzyme activity with the substrate” value [1] read?
**A.** The value was “active”.

**Q.** What about the “enzyme activity with the substrate” value [2] of the same compound?
**A.** Its value is “showed activity”.

**Q.** For `O=C[C@H](O)[C@@H](O)[C@H](O)[C@H](O)C(=O)O` [GlcUA, D-glucuronic acid], which “enzyme activity with the substrate” value [1] is on record?
**A.** Its value is “active”.

**Q.** What about the “enzyme activity with the substrate” value [2] of the same compound?
**A.** Its value is “showed activity”.

**Q.** For `NC(=O)c1ccc[n+]([C@@H]2O[C@H](COP(=O)([O-])OP(=O)(O)OC[C@H]3O[C@@H](n4cnc5c(N)ncnc54)[C@H](O)[C@@H]3O)[C@@H](O)[C@H]2O)c1` [NAD], which Km ([1]; purified histidine-tagged enzyme, Michaelis-Menten constant of the substrate/cofactor) is on record?
**A.** Its Km is 900 µM.

**Q.** What about the Vmax ([1]; purified histidine-tagged enzyme, one unit forms 1 μmol of product per minute) of the same compound?
**A.** The Vmax was 145 units per mg of protein.

**Q.** What does the source list for “D-galacturonic acid dehydrogenase (uronate dehydrogenase, EC 1.1.1.203, uro1) (Agrobacterium fabrum str. C58)”?
**A.** Km [3]: 500 µM; Vmax [3]: 124 units per mg of protein; Km [4]: 1100 µM; Vmax [4]: 221 units per mg of protein
